This note sets out measurements from article PMC8450872 (Human Reproduction (Oxford, England), 2021).

The assay deals with CatSper (Homo sapiens, UniProt Q7RTX7+Q86XQ3+Q8NEC5+Q96P56). In words: whole-cell patch clamp of human sperm. The format is cell-based. In general terms: The patch-clamp technique gives a direct electrical read-out from membranes.

Molecules are shown by their SMILES.

Sequence of CatSper (Q96P56 whole entry): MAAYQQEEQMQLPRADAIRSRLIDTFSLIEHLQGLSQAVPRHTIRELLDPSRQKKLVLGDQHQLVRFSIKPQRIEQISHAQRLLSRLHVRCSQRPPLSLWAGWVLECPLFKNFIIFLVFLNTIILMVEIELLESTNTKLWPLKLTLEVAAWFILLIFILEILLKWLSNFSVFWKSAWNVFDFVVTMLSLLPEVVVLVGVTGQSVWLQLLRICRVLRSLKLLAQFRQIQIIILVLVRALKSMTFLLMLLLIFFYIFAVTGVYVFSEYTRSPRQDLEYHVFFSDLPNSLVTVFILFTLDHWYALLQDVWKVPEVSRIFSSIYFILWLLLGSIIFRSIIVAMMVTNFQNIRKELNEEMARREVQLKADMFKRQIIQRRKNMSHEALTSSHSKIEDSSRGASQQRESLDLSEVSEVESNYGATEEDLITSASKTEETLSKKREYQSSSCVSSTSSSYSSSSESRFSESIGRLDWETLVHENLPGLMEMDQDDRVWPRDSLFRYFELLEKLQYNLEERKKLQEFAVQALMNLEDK
Sequence of CatSper (Q8NEC5 whole entry): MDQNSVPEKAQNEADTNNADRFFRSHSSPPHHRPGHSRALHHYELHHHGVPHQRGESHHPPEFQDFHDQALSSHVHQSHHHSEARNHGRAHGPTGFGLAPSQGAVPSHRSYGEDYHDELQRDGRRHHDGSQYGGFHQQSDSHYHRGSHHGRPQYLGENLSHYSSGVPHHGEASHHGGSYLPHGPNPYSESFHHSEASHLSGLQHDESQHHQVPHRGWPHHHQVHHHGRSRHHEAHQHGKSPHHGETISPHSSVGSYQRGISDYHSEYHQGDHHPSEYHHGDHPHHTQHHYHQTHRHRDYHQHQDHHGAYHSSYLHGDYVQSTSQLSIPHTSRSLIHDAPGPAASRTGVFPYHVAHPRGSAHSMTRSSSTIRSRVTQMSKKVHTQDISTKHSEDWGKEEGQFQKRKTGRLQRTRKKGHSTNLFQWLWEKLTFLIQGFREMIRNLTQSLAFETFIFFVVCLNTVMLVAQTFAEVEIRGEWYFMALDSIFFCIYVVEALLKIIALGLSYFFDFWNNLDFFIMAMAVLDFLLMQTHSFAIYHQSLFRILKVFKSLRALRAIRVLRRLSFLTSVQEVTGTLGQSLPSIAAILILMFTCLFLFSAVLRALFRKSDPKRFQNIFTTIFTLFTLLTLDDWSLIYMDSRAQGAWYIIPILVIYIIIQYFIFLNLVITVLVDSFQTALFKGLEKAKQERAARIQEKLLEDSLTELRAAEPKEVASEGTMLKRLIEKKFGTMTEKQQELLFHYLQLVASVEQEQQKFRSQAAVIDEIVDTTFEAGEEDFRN
Sequence of CatSper (Q86XQ3 whole entry): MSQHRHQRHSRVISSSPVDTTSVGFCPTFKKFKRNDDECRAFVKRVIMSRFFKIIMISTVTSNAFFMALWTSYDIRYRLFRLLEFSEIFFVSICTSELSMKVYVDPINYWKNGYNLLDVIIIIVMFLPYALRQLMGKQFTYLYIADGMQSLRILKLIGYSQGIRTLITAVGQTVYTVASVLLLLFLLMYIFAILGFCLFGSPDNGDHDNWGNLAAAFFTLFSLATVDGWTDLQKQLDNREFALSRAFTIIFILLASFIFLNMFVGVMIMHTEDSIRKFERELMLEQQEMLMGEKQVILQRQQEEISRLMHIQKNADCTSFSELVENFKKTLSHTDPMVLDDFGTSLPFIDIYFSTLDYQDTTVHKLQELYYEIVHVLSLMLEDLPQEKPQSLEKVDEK
Sequence of CatSper (Q7RTX7 whole entry): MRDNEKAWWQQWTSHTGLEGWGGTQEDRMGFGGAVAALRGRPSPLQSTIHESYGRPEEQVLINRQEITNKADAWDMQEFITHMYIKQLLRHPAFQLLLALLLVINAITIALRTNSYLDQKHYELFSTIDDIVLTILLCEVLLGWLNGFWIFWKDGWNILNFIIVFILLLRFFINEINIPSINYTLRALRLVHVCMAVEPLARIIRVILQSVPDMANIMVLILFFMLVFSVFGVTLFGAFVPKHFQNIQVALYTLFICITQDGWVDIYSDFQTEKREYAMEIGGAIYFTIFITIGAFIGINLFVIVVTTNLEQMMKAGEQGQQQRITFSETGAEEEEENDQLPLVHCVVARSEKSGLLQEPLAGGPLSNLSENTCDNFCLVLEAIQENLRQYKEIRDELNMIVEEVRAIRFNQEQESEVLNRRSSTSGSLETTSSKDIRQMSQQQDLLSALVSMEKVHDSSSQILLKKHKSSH

Consider `CN[C@H]1CC[C@@H](c2ccc(Cl)c(Cl)c2)c2ccccc21` [Sertraline], for which the IC50 – broadly, the concentration at which inhibition is half-maximal – came out at 4.62 ± 1.18 µM.
